These results are taken from patent US10786505B2, “Administration of NEDD8-activating enzyme inhibitor and chemotherapeutic agents” (Millennium Pharmaceuticals, Inc., priority 2013, dated 2020).

Assay type in all cases: in vivo, mice
Assay [1] relates to NCI-H69 xenograft model. Put plainly: Combination of carboplatin and MLN4924 in NCI-H69 xenograft model. Here is the method: NCI-H69 or NCI-H82 small cell lung tumor fragments (30- to 40-mg) are implanted into the subcutaneous space in the area of the right flank of NCr nu/nu mice (7-10 weeks, Charles River Laboratories, Inc, Frederick Md. or Wilmington, Mass.) using a 12-gauge trocar.
(§1) Carboplatin (CARBOplatin Injection, Hospira, Inc., Qilu Pharmaceutical Co., Ltd. Jinan, Shandong, China, and Teva Gry-Pharma GmbH, Ulm, Germany) is formulated in 0.9% saline and administered by IP injection once weekly (QW) at 50 mg/kg. The once weekly schedule is also described as every 7 days (Q7D).
(§2) Tumors are measured twice weekly using a vernier caliper. Tumor volumes are calculated using standard procedures (0.5×(length×width^2)). […] Tumor size and body weight are measured approximately twice a week for the duration of the study. Mice are euthanized when their tumor volume reached 10% of their body weight, or when the average tumor volume of a treatment or control group reached approximately 2000 mm^3. Tumor growth continued to be monitored after the dosing period in some studies. Average tumor volume is reported as a function of time for selected groups of selected studies in Figures A, B, and C.
(§3) Measurements from day 0 to 18, 21 or 22 are analyzed as specified in Tables 4-9. All tumor volumes have a value of 1 added to them before log10 transformation. For each animal, the log tumor volume at day 0 is subtracted from the log tumor volume on the subsequent days. This difference vs. time is used to calculate an area under the curve (AUC) for each animal using the trapezoid rule. […] The synergy score for the combination of agents A and B is defined as 100*(mean(AUCAB)−mean(AUCA)−mean(AUCB)+mean(AUCctl))/mean(AUCctl): where AUCAB, AUCA, AUCB, and AUCctl are the AUC values for animals in the combination group, the A group, the B group, and the control group, respectively. The standard error of the synergy score is computed based on the variation in the AUC values among the animals. […] If the P-value is above 0.05, then the combination is considered to be additive. If the P-value is below 0.05, and the synergy score is less than zero, then the combination is considered to be synergistic. […] Otherwise, the combination is classified as antagonistic.

Assay [2] relates to NCI-H1650 xenograft model. Briefly: Combination of docetaxel and MLN4924 in NCI-H1650 xenograft model.
Source text: NCI-H1650 (2×10^6) tumor cells in RPMI-1640 media are mixed with an equal volume of Matrigel (BD Biosciences) and aseptically injected into the subcutaneous space in the right dorsal flank of Balb/c Nude mice (age 4-6 weeks, Shanghai SINO-British SIPPR/BK Lab Animal Ltd.) using a 25-gauge needle.
(§4) Docetaxel (Henry Schein, Inc., Pittsburgh Pa., Qilu Pharmaceutical Co., Ltd., Jinan, Shandong, China, and Sanofi-Aventis) is formulated in 0.9% saline and administered by intravenous injection (IV) once weekly (QW) at 5 mg/kg or 10 mg/kg.
as §2, §3

In assay [3] the test system is LXFE409 xenograft model. Put plainly: Combination of docetaxel or carboplatin and MLN4924 in LXFE409 xenograft model. The conditions noted are these: for average tumor volume day 21: LXFE409 xenograft. Here is the method: LXFE409 squamous non small cell lung cancer tumor fragments are implanted into the subcutaneous space in the flank of female NMRI nu/nu mice (5-7 weeks, Janvier Labs, Saint Berthevin, France).
as §4, §1, §2, §3

Setting [4] is: 120 mg/kg MLN4924 Q2Dx3/week SC.

For the compound `NS(=O)(=O)OC[C@@H]1C[C@@H](n2ccc3c(N[C@H]4CCc5ccccc54)ncnc32)C[C@@H]1O` [MLN4924, ((1S,2S,4R)-4-(4-((1S)-2,3-dihydro-1H-inden-1-ylamino)-7H-pyrrolo[2,3-d]-pyrimidin-7-yl)-2-hydroxycyclopentyl)methyl sulfamate], the “average tumor volume day 21” value in assay [1] (60 mg/kg MLN4924 BID Q3D x 2/week SC) is 597.1 mm^3; in assay [1] (120 mg/kg MLN4924 BID Q3D x 2/week SC), 415.2 mm^3; in assay [2] (90 mg/kg MLN4924 Q2Dx3/week SC), 776.8 mm^3; in assay [2] (setting [4]) it was 774.2 mm^3; in assay [3] (90 mg/kg MLN4924 Q2Dx3/week SC) it was 707.5 mm^3; in assay [3] (setting [4]), 167.1 mm^3. The “tumor growth during the treatment period (in words)” value in assay [1] (FIG. 3, MLN4924 SC 120 mg/kg BID Q3Dx2/week, carboplatin 50 mg/kg IP QW, single agents or their combination) is recorded as “inhibited tumor growth compared to the control vehicle group”. The “tumor course after the treatment period, to end of study on day 95 (in words)” value in assay [3] (LXFE409 sqNSCLC model, FIG. 4, MLN4924 120 mg/kg SC Q2Dx3/week for 3 weeks, docetaxel 10 mg/kg IV QW for 3 weeks, single agents or combination) is listed as “regrew after the treatment period ended”.
